Laboratory results reported in patent US7754272B2, “Local drug delivery” (Biocompatibles IK Limited, priority 1999, dated 2010).
Values after ≈ are worked out from the molar mass of the structure shown.

What was measured:
[1] = cited from earlier work
[2] = In vivo porcine coronary artery model, angiopeptin loaded stents
Method: Further work was conducted to investigate the ability of the angiopeptin loaded stents to deliver angiopeptin tissue in an in vivo, in a porcine coronary artery model. […] The levels of angiopeptin remaining in the arterial wall immediately surrounding the stent was determined as well as the level recovered in blood and urine.

[3] = Ex vivo human saphenous vein model, angiopeptin loaded stents
Method: More extensive work was conducted on angiopeptin loaded stents, to mimic the in vivo environment. The further examples use an ex vivo human saphenous vein model (as described by Armstrong, J. et al 1998. A purfused organ culture model to investigate drug release from coronary stents, Northern General Hospital, Sheffield (in press). The stents (produced as in Reference Example 1 below) were loaded using aqueous solutions of angiopeptin labeled with ^125I by the chloramine T method, into which the stent was dipped for half an hour at 37 C. The loaded stents were then allowed to air dry for one hour. Stents were in inserted into the vein, expanded by balloon catheter, washed in 10 ml culture medium for 10 s then placed in the purpose-built organ culture chamber bathed in 30 ml culture medium. The chamber was then connected to a circuit and 100 ml culture medium (HEPES-buffered RPMI 1640 culture medium (LIFE) supplemented with penicillin ([…]) streptomycin (100 units/ml) and glutamine (2 mM)) at 70 ml/min, then removed after 1 hour or 24 hours. The stent was subsequently examined to determine the proportion of angiopeptin which has eluted, whilst the vessel immediately surrounding the stent was investigated to determine the proportion of eluted drug found in the vessel. The culture medium was also analysed as was the explanted stent for radio activity.

[4] = Aspirin loading and release, pre-coated stents; format: physicochemical; details: for aspirin loaded: 15 mm stent, one hour, room temperature
From the text: Aspirin has anti platelet activity, which may be useful delivered locally from a stent. […] The solutions were used to load 15 mm stents having coatings produced according to Reference Example 1 (interior wall coating thickness around 350 nanometers, exterior wall coating thickness around 1400 nanometers). The stents were immersed in the aspirin solutions at room temperature for a period of one hour. The stent was removed from the solution, excess solution removed by gentle dabbing with absorbent tissue. Aspirin loading levels were determined by extracting the aspirin into 3 ml ethanol.

[5] = Dexamethasone phosphate and dexamethasone loading and elution, pre-coated stents; details: for loading per stent: 20 C., 30 minutes
[6] = Roxithromycin loading and release, pre-coated stents; format: physicochemical
Method: Stents coated with polymer according to Reference Example 1 (15 mm) were loaded with roxithromycin from 5 g/l and 10 g/l solutions in ethanol or in ethanol:water 50:50 mixture. The level of loading of drug onto the stent was determined by elution from the stent into ethanol. […] The average loading for the 5 g/l solution was 58 μg per stent, whilst the 10 g/l solutions lead to loadings of around 70 μg for both solvent systems.
Stents loaded from the 10 g/l ethanolic solutions were subsequently contacted with phosphate buffered saline under gentle agitation and the release rate determined. […] The test was continued up to 48 hours, after which time 5 to 10% of roxithromycin remains in the coating.

[7] = Taxol loading of cross-linked polymer discs; format: physicochemical
Method: Polymers of the same compositions as used in example 8 are tested for taxol (paclitaxel) loading. Twenty discs were cut out of each membrane of polymer, placed on pieces of PTFE in petri dishes and dried in an oven at 60° C. for an hour. When cool the discs were placed into a solution of taxol and allowed to swell in a water bath at 37° C. for half an hour. The taxol solution was decanted off, the discs labelled and placed on the PTFE and allowed to air dry. The discs were then tested for determining total loadings.

[8] = Drug loading of HEMA-PC:HEMA:MMA:MBA crosslinked membrane; format: physicochemical; details: HEMA-PC:HEMA:MMA:MBA copolymer swollen in aqueous drug solution, room temperature, over night
From the text: The polymers including MBA were polymerised in situ to form crosslinked membranes. […] The crosslinked polymers were used to form “infinite slabs” type membranes, to simulate the coating on a stent. […] The loaded levels were established to be the following: […]

[9] = Vitamin B12 loading of MBA-crosslinked HEMA-PC:LM polymers; format: physicochemical
Method: Polymers based on HEMA-PC:LM 1:2 with varying degrees of MBA crosslinker were tested to determine the effect of crosslinker on release of vitamin B12. The polymers were also tested for their water content when swollen to equilibrium in water at 37° C. The loading levels of vitamin B12 are recorded in table 2 below.
Also recorded in table 2 are similar results for MBA crosslinked copolymers based upon 1:1 copolymers of HEMA-PC and LM.

Compound: CO[C@H]1C[C@@H]2CC[C@@H](C)[C@@](O)(O2)C(=O)C(=O)N2CCCC[C@H]2C(=O)O[C@H]([C@H](C)C[C@@H]2CC[C@@H](O)[C@H](OC)C2)CC(=O)[C@H](C)/C=C(\C)[C@@H](O)[C@@H](OC)C(=O)[C@H](C)C[C@H](C)/C=C/C=C/C=C/1C [Rapamycin]
- solubility in water [1]: 5 µg/mL (≈ 5.47 µM)

Compound: CC(C)[C@@H]1NC(=O)[C@H](CCCCN)NC(=O)[C@@H](Cc2c[nH]c3ccccc23)NC(=O)[C@H](Cc2ccc(O)cc2)NC(=O)[C@@H](NC(=O)[C@H](N)Cc2ccc3ccccc3c2)CSSC[C@@H](C(=O)N[C@H](C(N)=O)[C@@H](C)O)NC1=O [angiopeptin]
- share of detected angiopeptin located in tissue other than the heart ([2]; 1 to 28 days): less than 1%
- angiopeptin in blood ([2]; after 5 min): 0.08 µg/mL
- angiopeptin in urine ([2]; after 1 hour): 0.29 µg/mL
- share of angiopeptin remaining on the stent ([2]; after 1 hour): 9%
- angiopeptin in blood ([2]; after 24 hours): around 0.01 μg/ml
- share of angiopeptin remaining on the stent ([2]; after 24 hours): 4%
- share of angiopeptin remaining on the stent ([2]; after 7 days): 1.5%
- angiopeptin in urine ([2]; after 28 days): 0.01 µg/mL
- angiopeptin in blood compared with 5 min ([2]; after one hour): about the same
- level of angiopeptin in tissue ([2]; arterial wall surrounding the stent, after 24 hours): around 400 pg/ml
- angiopeptin in blood ([2]; at 7 to 28 days): No angiopeptin could be found
- share of released angiopeptin localised in the left anterior descending coronary artery ([2]; at 1 hour): 84%
- level of angiopeptin in tissue ([2]; at 7 days): around 360 pg/ml
- level of angiopeptin in tissue ([2]; at 28 days): around 200 pg/ml
- share of angiopeptin eluted from stent ([3]; after 1 hour): 93%
- share of eluted drug in the surrounding vessel ([3]; after 1 hour): 13.9%
- share of angiopeptin eluted from stent ([3]; after 24 hours): 97%
- share of eluted drug remaining in the vessel ([3]; after 24 hours): 7.4%

Compound: CC(=O)Oc1ccccc1C(=O)O [aspirin, Aspirin]
- solubility in water [1]: only partially soluble in water
- aspirin loaded ([4]; 10 g/l in ethanol): around 10 μg
- aspirin loaded ([4]; 40 g/l in ethanol): around 40 μg
- share of drug eluted ([4]; into phosphate buffered saline, after about 1 hour): around 90%

Compound: C[C@@H]1C[C@H]2[C@@H]3CCC4=CC(=O)C=C[C@]4(C)[C@@]3(F)[C@@H](O)C[C@]2(C)[C@@]1(O)C(=O)COP(=O)(O)O [dexamethasone phosphate, Dexamethasone phosphate]
- loading per stent ([5]; 1.0 g/l in water): 9 μg per stent
- loading per stent ([5]; 2.0 g/l in water): 14 µg
- loading per stent ([5]; 5.0 g/l in water): 20 µg
- time by which effectively all the drug is released ([5]; elution test): ≤ 1 h

Compound: C[C@@H]1C[C@H]2[C@@H]3CCC4=CC(=O)C=C[C@]4(C)[C@@]3(F)[C@@H](O)C[C@]2(C)[C@@]1(O)C(=O)CO [dexamethasone, Dexamethasone]
- solubility in water [1]: less water soluble than dexamethasone phosphate

Compound: CC[C@H]1OC(=O)[C@H](C)[C@@H](O[C@H]2C[C@@](C)(OC)[C@@H](O)[C@H](C)O2)[C@H](C)[C@@H](O[C@@H]2O[C@H](C)C[C@H](N(C)C)[C@H]2O)[C@](C)(O)C[C@@H](C)/C(=N\OCOCCOC)[C@H](C)[C@@H](O)[C@]1(C)O [roxithromycin, Roxithromycin]
- solubility in water [1]: substantially insoluble in water
- average loading ([6]; 15 mm stent, 5 g/l solution): 58 μg per stent
- loading ([6]; 15 mm stent, 10 g/l solutions, ethanol and ethanol:water 50:50): around 70 μg
- share of compound released ([6]; PBS, gentle agitation, after 24 hours, loaded from 10 g/l ethanolic solution): around half

Compound: CC(=O)O[C@H]1C(=O)[C@@]2(C)[C@H]([C@H](OC(=O)c3ccccc3)[C@]3(O)C[C@H](OC(=O)[C@H](O)[C@@H](NC(=O)c4ccccc4)c4ccccc4)C(C)=C1C3(C)C)[C@]1(OC(C)=O)CO[C@@H]1C[C@@H]2O [taxol, paclitaxel]
- Total Loading (μg per disc) ([7]; Series 1, 1st polymer (Table 4 HEMA-PC:LM:Hpm:TMSPM 13:39:15:5)): 35.2 μg per disc
- Total Loading (μg per disc) ([7]; Series 1, 2nd polymer (Table 4 53:39:15:5)): 80 μg per disc
- Total Loading (μg per disc) ([7]; Series 1, 3rd polymer (Table 4 13:55:15:5)): 15 μg per disc
- Total Loading (μg per disc) ([7]; Series 1, 4th polymer (Table 4 33:55:15:5)): 18.1 μg per disc
- Total Loading (μg per disc) ([7]; Series 2, 1st polymer (Table 4 13:39:15:9)): 51.7 μg per disc
- Total Loading (μg per disc) ([7]; Series 2, 2nd polymer (Table 4 33:39:15:9)): 57 μg per disc
- Total Loading (μg per disc) ([7]; Series 2, 3rd polymer (Table 4 13:55:15:9)): 18.6 μg per disc
- Total Loading (μg per disc) ([7]; Series 2, 4th polymer (Table 4 33:55:15:9)): 10 μg per disc
- Total Loading (μg per disc) ([7]; Series 3, 1st polymer (Table 4 13:39:35:5)): 55.2 μg per disc
- Total Loading (μg per disc) ([7]; Series 3, 2nd polymer (Table 4 33:39:35:5)): 11.2 μg per disc
- Total Loading (μg per disc) ([7]; Series 3, 3rd polymer (Table 4 13:55:35:5)): 5.4 μg per disc
- Total Loading (μg per disc) ([7]; Series 3, 4th polymer (Table 4 33:55:35:5)): 25.3 μg per disc
- Total Loading (μg per disc) ([7]; Series 4, 1st polymer (Table 4 13:39:35:9)): 23.8 μg per disc
- Total Loading (μg per disc) ([7]; Series 4, 2nd polymer (Table 4 33:39:35:9)): 60.5 μg per disc
- Total Loading (μg per disc) ([7]; Series 4, 3rd polymer (Table 4 13:55:35:9)): 24.3 μg per disc
- Total Loading (μg per disc) ([7]; Series 4, 4th polymer (Table 4 33:55:35:9)): 64 μg per disc

Compound: rhodamine
- Loading (mg/g polymer) [8]: 85 mg/g polymer

Compound: vitamin B12
- Vitamin B12 Load (mg/g polymer) ([9]; HEMA-PC:LM 1:1, crosslinker 0.28 mole %): 26.13 mg/g polymer
- Vitamin B12 Load (mg/g polymer) ([9]; HEMA-PC:LM 1:1, crosslinker 0.5 mole %): 19.83 mg/g polymer
- Vitamin B12 Load (mg/g polymer) ([9]; HEMA-PC:LM 1:1, crosslinker 1 mole %): 11.89 mg/g polymer
- Vitamin B12 Load (mg/g polymer) ([9]; HEMA-PC:LM 1:1, crosslinker 2 mole %): 8.44 mg/g polymer
- Vitamin B12 Load (mg/g polymer) ([9]; HEMA-PC:LM 1:1, crosslinker 5 mole %): 4.94 mg/g polymer
- Vitamin B12 Load (mg/g polymer) ([9]; HEMA-PC:LM 1:2, crosslinker 0.28 mole %): 11.73 mg/g polymer
- Vitamin B12 Load (mg/g polymer) ([9]; HEMA-PC:LM 1:2, crosslinker 0.5 mole %): 10.68 mg/g polymer
- Vitamin B12 Load (mg/g polymer) ([9]; HEMA-PC:LM 1:2, crosslinker 1 mole %): 11.4 mg/g polymer
- Vitamin B12 Load (mg/g polymer) ([9]; HEMA-PC:LM 1:2, crosslinker 2 mole %): 4.66 mg/g polymer
- Vitamin B12 Load (mg/g polymer) ([9]; HEMA-PC:LM 1:2, crosslinker 5 mole %): 1.96 mg/g polymer
- Vitamin B12 Load (mg/g polymer) ([9]; HEMA-PC:LM 1:2, crosslinker 10 mole %): 0 mg/g polymer
- Loading (mg/g polymer) [8]: 40 mg/g polymer
